Test results: patent publication US20090117054A1, “[…] FOR THE TREATMENT OF PAIN” (University of Kentucky Research Foundation, priority 2005, published 2009)
Like-named read-outs stand apart in the source and are kept apart here.

Columns and labels:
[1] = cited from earlier work; for time to reach maximum plasma concentration: healthy volunteers
[2] = Pharmacokinetics of oxycodone in rabbits after intravenous and sublingual spray administration
[3] = male, New Zealand albino, rabbit, plasma, iv, 100 ug

| SMILES | bioavailability ([1]; buccal and intranasal administration) | Tmax ([2]; male, New Zealand albino, rabbit, plasma, 100 μg) [min] | bioavailability ([2]; male, New Zealand albino, rabbit, plasma, 100 μg, pH 4) [%] | bioavailability ([2]; male, New Zealand albino, rabbit, plasma, 100 μg, pH 9) [%] | AUC(0-inf) [2, 3] [ng·h/mL] | Cmax [2, 3] [ng/mL] | Tmax [2, 3] [min] | half-life [2, 3] [min] | terminal half-life after intravenous administration compared with sublingual administration ([2]; rabbits) | time to reach maximum plasma concentration ([1]; immediate release oral tablets) [h] | time to reach maximum plasma concentration ([1]; intramuscular) [h] | time to reach maximum plasma concentration ([1]; intranasal) [h] | bioavailability ([1]; oral, nasal and rectal, adults, compared with parenteral administration) |
| --- | --- | --- | --- | --- | --- | --- | --- | --- | --- | --- | --- | --- | --- |
| COc1ccc2c3c1O[C@H]1C(=O)CC[C@@]4(O)[C@@H](C2)N(C)CC[C@]314.Cl [oxycodone hydrochloride] | around 55% | – | – | – | – | – | – | – | – | – | – | – | – |
| COc1ccc2c3c1O[C@H]1C(=O)CC[C@@]4(O)[C@@H](C2)N(C)CC[C@]314 [oxycodone, 4,5-epoxy-14-hydroxy-3-methoxy-1 7-methyl-5a-morphinan-6-one] | – | 20 | 45.4 ± 20.1 | 70.1 ± 17.9 | 213 | 185 | 0 | 67.8 | close to the terminal half-life after sublingual administration | 1.3 | 1.0 | 0.42 | 40-60% |
